In this assay the test system is HEK293 cells. The assay is described as follows: HEK293 VLCFA-LPC IC50 determination (13C-labeled C26:0 LPC by UHPLC/MS). It is filed as cell-based, human. Conditions: Homo sapiens, HEK293, HEK293 cells; average of one or more replicates; read-out: Average HEK293 IC50. Put shortly: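 Suspension HEK293 cells (final 0.5 million/mL after mixing with equal volume) incubated 48 hours with compound plus 13C-acetate (1.0 mg/mL in added media), shaking at 37° C. Lipids extracted with hexane/isopropanol or methanol, C13:0 LPC standard. UHPLC/MS of 13C-labeled C26:0 LPC (638.500/104.100 m/z); IC50 by four-parameter fit.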

The term IC50 denotes the concentration needed to halve the response being measured. In the case of `O=C(Nc1ccn(-c2ccccc2)n1)C1(c2ccccc2)CC1(Cl)Cl` (stereo not shown) [Compound 141, 2,2-dichloro-1-phenyl-N-(1-phenylpyrazol-3-yl)cyclopropanecarboxamide], the IC50 was determined as 340 nM.

On to `O=C(Nc1ccn(-c2ccccc2)n1)C1(c2ccccc2)CCCCC1` [Compound 142, 1-phenyl-N-(1-phenylpyrazol-3-yl)cyclohexanecarboxamide], for which the IC50 was over 5000 nM. The value for `O=C(Nc1ccn(-c2ccccc2)n1)C1(c2ccccc2)COC1` [Compound 144, 3-phenyl-N-(1-phenylpyrazol-3-yl)oxetane-3-carboxamide] was 260 nM. Take `O=C(Nc1ccn(-c2ccccc2)n1)[C@]1(c2ccccc2)CC12CCCC2` [Compound 145, (2R)-2-phenyl-N-(1-phenylpyrazol-3-yl)spiro[2.4]heptane-2-carboxamide]: the IC50 is over 5000 nM.

As for `O=C(Nc1ccn(-c2ccccc2)n1)[C@@]1(c2ccccc2)CC12CCC2` [Compound 146, (2S)-2-phenyl-N-(1-phenylpyrazol-3-yl)spiro[2.3]hexane-2-carboxamide], the IC50 came to 87 nM. For the compound `O=C(Nc1ccn(-c2ccnc(F)c2)n1)C1(c2ccccc2)CC1(Cl)Cl` (stereo not shown) [Compound 147, 2,2-dichloro-N-[1-(2-fluoro-4-pyridyl)pyrazol-3-yl]-1-phenyl-cyclopropanecarboxamide], the IC50 was found to be 280 nM. As to `O=C(Nc1ccn(-c2ccnc(F)c2)n1)C1(c2ccccc2)CCCCC1` [Compound 148, N-[1-(2-fluoro-4-pyridyl)pyrazol-3-yl]-1-phenyl-cyclohexanecarboxamide], the IC50 is over 5000 nM. As for `O=C(Nc1ccn(-c2ccnc(F)c2)n1)C1(c2ccccc2)COC1` [Compound 149, N-[1-(2-fluoro-4-pyridyl)pyrazol-3-yl]-3-phenyl-oxetane-3-carboxamide], the IC50 worked out at 660 nM. The value for `O=C(Nc1ccn(-c2ccnc(F)c2)n1)[C@@]1(c2ccccc2)CC12CCCC2` [Compound 150, (2S)-N-[1-(2-fluoro-4-pyridyl)pyrazol-3-yl]-2-phenyl-spiro[2.4]heptane-2-carboxamide] was under 50 nM; that for `O=C(Nc1ccn(-c2ccnc(F)c2)n1)[C@@]1(c2ccccc2)CC12CCC2` [Compound 151, (2S)-N-[1-(2-fluoro-4-pyridyl)pyrazol-3-yl]-2-phenyl-spiro[2.3]hexane-2-carboxamide] was under 50 nM; that for `O=C(Nc1ccn(-c2ccnc(F)c2)n1)C(c1ccccc1)C1CCCC1` (stereo not shown) [Compound 152, 2-cyclopentyl-N-[1-(2-fluoro-4-pyridyl)pyrazol-3-yl]-2-phenyl-acetamide] was 1700 nM. The value for `O=C(Cc1ccccc1)Nc1ccn(-c2ccc(C(F)(F)F)cc2)n1` [Compound 153, 2-phenyl-N-[1-[4-(trifluoromethyl)phenyl]pyrazol-3-yl]acetamide] was over 5000 nM; that for `O=C(Nc1ccn(-c2ccc(C(F)(F)F)cc2)n1)C1(c2ccccc2F)CC1` [Compound 154, 1-(2-fluorophenyl)-N-[1-[4-(trifluoromethyl)phenyl]pyrazol-3-yl]cyclopropanecarboxamide] was 360 nM. With `O=C(Cc1ccccc1F)Nc1ccn(-c2ccc(C(F)(F)F)cc2)n1` [Compound 155, 2-(2-fluorophenyl)-N-[1-[4-(trifluoromethyl)phenyl]pyrazol-3-yl]acetamide], the IC50 is over 5000 nM. Take `O=C(Nc1ccn(-c2ccc(C(F)(F)F)cc2)n1)C1(c2ccccc2)CC1` [Compound 156, 1-phenyl-N-[1-[4-(trifluoromethyl)phenyl]pyrazol-3-yl]cyclopropanecarboxamide]: the IC50 is over 2000 nM.

Turning to `O=C(Cc1ccccc1)Nc1ccn(-c2cccc(C(F)(F)F)c2)n1` [Compound 157, 2-phenyl-N-[1-[3-(trifluoromethyl)phenyl]pyrazol-3-yl]acetamide], the IC50 was over 5000 nM.

`O=C(Cc1ccccc1F)Nc1ccn(-c2cccc(C(F)(F)F)c2)n1` [Compound 158, 2-(2-fluorophenyl)-N-[1-[3-(trifluoromethyl)phenyl]pyrazol-3-yl]acetamide]: the IC50 stood at 2900 nM. As for `O=C(Nc1ccn(-c2cccc(C(F)(F)F)c2)n1)C1(c2ccccc2)CC1` [Compound 159, 1-phenyl-N-[1-[3-(trifluoromethyl)phenyl]pyrazol-3-yl]cyclopropanecarboxamide], the IC50 is over 5000 nM.

As to `O=C(Cc1ccccc1)Nc1ccn(-c2cc(F)ccc2F)n1` [Compound 160, N-[1-(2,5-difluorophenyl)pyrazol-3-yl]-2-phenyl-acetamide], the IC50 is over 5000 nM. The value for `O=C(Nc1ccn(-c2cc(F)ccc2F)n1)C1(c2ccccc2F)CC1` [Compound 161, N-[1-(2,5-difluorophenyl)pyrazol-3-yl]-1-(2-fluorophenyl)cyclopropanecarboxamide] was 980 nM; that for `O=C(Cc1ccccc1F)Nc1ccn(-c2cc(F)ccc2F)n1` [Compound 162, N-[1-(2,5-difluorophenyl)pyrazol-3-yl]-2-(2-fluorophenyl)acetamide] was 740 nM; that for `O=C(Nc1ccn(-c2cc(F)ccc2F)n1)C1(c2ccccc2)CC1` [Compound 163, N-[1-(2,5-difluorophenyl)pyrazol-3-yl]-1-phenyl-cyclopropanecarboxamide] was 4500 nM. In the case of `O=C(Nc1ccn(-c2ccnc(F)c2)n1)[C@]1(c2ccccc2)CC12CCCC2` [Compound 164, (2R)-N-[1-(2-fluoro-4-pyridyl)pyrazol-3-yl]-2-phenyl-spiro[2.4]heptane-2-carboxamide], the IC50 was over 5000 nM. As to `CC1(C)CC1(C(=O)Nc1ccn(-c2ccnc(F)c2)n1)c1ccccc1` (stereo not shown) [Compound 165, N-[1-(2-fluoro-4-pyridyl)pyrazol-3-yl]-2,2-dimethyl-1-phenyl-cyclopropanecarboxamide], the half-maximal inhibitory concentration (IC50) is 50 nM. Regarding `CCC1(C)CC1(C(=O)Nc1ccn(-c2ccccc2)n1)c1ccccc1` (stereo not shown) [Compound 166, 2-ethyl-2-methyl-1-phenyl-N-(1-phenylpyrazol-3-yl)cyclopropanecarboxamide], the IC50 was 630 nM. With `O=C(Nc1ccn(-c2ccccc2)n1)C(c1ccccc1)C1CCCC1` (stereo not shown) [Compound 167, 2-cyclopentyl-2-phenyl-N-(1-phenylpyrazol-3-yl)acetamide], the IC50 was over 5000 nM. For the compound `CCC1(C)CC1(C(=O)Nc1ccn(-c2ccnc(F)c2)n1)c1ccccc1` (stereo not shown) [Compound 168, 2-ethyl-N-[1-(2-fluoro-4-pyridyl)pyrazol-3-yl]-2-methyl-1-phenyl-cyclopropanecarboxamide], the IC50 is 86 nM.

On to `CSCC(C(=O)Nc1ccn(-c2ccccc2)n1)c1ccccc1` (stereo not shown) [Compound 170, 3-methylsulfanyl-2-phenyl-N-(1-phenylpyrazol-3-yl)propanamide], for which the IC50 is over 5000 nM. As to `CCC(C(=O)Nc1ccn(-c2ccnc(F)c2)n1)c1ccccc1` (stereo not shown) [Compound 171, N-[1-(2-fluoro-4-pyridyl)pyrazol-3-yl]-2-phenyl-butanamide], the half-inhibitory concentration (IC50) came to 140 nM. `O=C(Nc1ccn(-c2ccnc(F)c2)n1)C1(c2ccccc2)CC(F)(F)C1` [Compound 172, 3,3-difluoro-N-[1-(2-fluoro-4-pyridyl)pyrazol-3-yl]-1-phenyl-cyclobutanecarboxamide]: the IC50 worked out at 380 nM. Take `CCCC(C(=O)Nc1ccn(-c2ccnc(F)c2)n1)c1ccccc1` (stereo not shown) [Compound 173, N-(1-(2-fluoropyridin-4-yl)-1H-pyrazol-3-yl)-2-phenylpentanamide]: the IC50 was 72 nM.

The record behind these values is patent US20180251431A1 (VERTEX PHARMACEUTICALS INCORPORATED, priority 2016, published 2018).
